Values quoted from earlier work as cited in patent US20090170823A1, “Dosage Regimens and Pharmaceutical Compositions and Packages for Emergency Contraception” (Duramed Pharmaceuticals, Inc., priority 2007, published 2009).

Conditions: relative to 30 μg ethinyl estradiol; see EP 0 253 607

Row | SMILES | amount roughly equivalent to 30 μg of ethinyl estradiol
1 | C[C@]12CC[C@@H]3c4ccc(O)cc4CC[C@H]3[C@@H]1CC[C@@H]2O [17β-estradiol] | ~2,000 μg
2 | C#C[C@]1(O)CC[C@H]2[C@@H]3CCc4cc(OC)ccc4[C@H]3CC[C@@]21C [mestranol] | ~60 µg
